From US9403843B2, “Cysteine protease inhibitors and uses thereof” (The Trustees of Columbia University in the City of New York, priority 2012, dated 2016)
Like-named read-outs stand apart in the source and are kept apart here.

Experiments:
[1] = tested on: Aβ40 and Aβ42; conditions: earlier observation; cited from earlier work
[2] = tested on: Cal1cat vs CathB; assay: Competition assay for Cal1 vs CathB using the biotinylated epoxide probe; type: binding, rat; conditions: for blocking of active site modification by probe 27 (western blot signal): 10 min pre-treatment, then 20 min with 27
Protocol: Anti-biotin western blotting of Cal1cat (Lane 6) or CathB (Lane 7) after incubation with 27 show the expected immunoreactivity of the covalently modified proteins. […] Densitometric analysis, using means from triplicate immunoblots, was used to estimate the modification of each protein by 27 in the presence of inhibitors relative to control (Lane 1: ratio=1.0).
Cal1cat was used in place of the full length enzyme to avoid autocatalysis.
Cal1cat and CathB were pre-treated with inhibitors for 10 min, followed by a 20 min incubation with the biotinylated epoxide, 27, as illustrated in FIG. 4. […] A more quantitative estimate of selectivity was achieved by comparison of band intensities.
The appropriate inhibitor (5 μM) was pre-incubated in a mixture containing Cal1cat (2 μM), CathB (2 μM), TCEP (1 mM), and Ca^2+ (30 μM) for 10 min at 37° C. […] (5 μM) was then added and the mixture incubated an additional 20 min. The reaction was quenched with EDTA (10 μM) and samples were ran using 4-16% SDS PAGE gel, subsequently transferred to PVDF membrane and visualized by Pierce ECL (Enhanced chemiluminescent) western blotting substrate, intensity of each blot was calculated using densitometry software. Relative inhibition of each enzyme was calculated with respect to enzyme activity in the absence of inhibitor. Inhibitor preference to Cal1cat with respect to CathB, was calculated by dividing relative Cal1cat inhibition with relative CathB inhibition of that particular inhibitor.

[3] = biological target: Cal1cat (Rattus norvegicus (Rat), UniProt P97571); assay: LC-MS/MS examination of inhibitor modified Cal1cat active site; type: binding; conditions: for modification of the active site cysteine of Cal1cat: Cal1cat 1 μM, varying inhibitor concentration
Protocol: (FIG. 3A) After capping of free cysteines with iodoacetamide (IAA) and in gel digest, peptide fragments were analyzed by LC-MS/MS. (FIG. 3B) Total ion chromatograms (TIC) for the incubation of recombinant Cal1cat (5 μM) in the absence or presence of inhibitors (10 μM). A non-active site and IAA-capped peptide fragment (Rt=41.3 min) was used as an internal standard for EIC quantitation. (FIG. 3C) Active site Cys modification of Cal1cat was concentration dependent in incubation containing Cal1cat (1 μM) and vary concentrations of inhibitors.
Inhibition kinetics and x-ray crystallography support a mechanism of calpain inhibition by E-64, resulting from covalent modification of the active site Cys (Suzuki, K. et al., FEBS Letters 1983, 152, 67-70; herein incorporated by reference in its entirety). LC-MS/MS was used to support a similar mechanism for 24a. The experimental methodology is outlined in FIG. 3A. Cal1cat (5 μM) was incubated with the appropriate inhibitor (10 μM) for 30 min. The mixture was quenched with EDTA (10 μM), and run on a SDS PAGE gel. Band excision, in-gel capping office cysteines with iodoacetamide (IAA, […]), tryptic digest, and subsequent LC-MS/MS analysis afforded the chromatograms shown in FIG. 3B. […] A peptide fragment containing an IAA labeled non-active site cysteine was used as an internal standard for semi-quantitative EIC analysis of the degree of active site modification observed (FIG. 3B). It is noteworthy that although Cal1cat was employed in these studies, analysis of full length Cal1 gave an identical active site peptide fragment (TIC of control digest from Cal1cat and full length Cal1 are compared in Example 10).
The reaction was quenched with EDTA (10 μM) and reaction mixture ran on a SDS PAGE gel. The Cal1cat containing band was cut from the gel and submitted to in-gel alkylation with IAA (100 mM) for 60 min, followed by trypsin digestion. LC-MS/MS was carried out on an Agilent 6300 Ion-Trap LC/MS. […] The resulting TIC and EIC were analyzed for anticipated m/z modified peptide fragments.

[4] = biological target: Full length porcine calpain (Sus scrofa (Pig), UniProt P35750); assay: Calpain inhibition kinetics studies (Suc-LLVY-AMC substrate); type: biochemical; conditions: for Ki: apparent equilibrium constant, read-out: K1 Calpain1; for Ki / ki Calpain1: full length Cal1; for ki Calpain1: inhibition rate; for rel Calpain1: ki/Ki calculated relative to E-64
Source text: (§1) Papain is representative of a family of typically lysosomal or secreted cysteine proteases, including the human cathepsins (B, C, F, H, K, L1-2, O, S, W, Z). […] Several methods have been reported in the literature for detailed kinetic analysis of the irreversible inhibition of cysteine proteases, including Cal1. […] (SEQ ID NO: 8). Using this substrate, kinetic parameters were derived using the method of Davies and co-workers, whereby “progress curves” were initially obtained measuring product formation as a function of time and fitted to y=P∞*(1−e^(−k*x)) (FIG. 7) (Cuerrier, D. et al., J Biol Chem 2007, 282, 9600-11; herein incorporated by reference in its entirety). […] Kinetic parameters (ki, KI, ki/KI) were obtained from double reciprocal plots (FIG. 7).
(§2) Full length porcine calpain (156 nM), or papain (236 pM) was added to a solution of 100 mM NaCl, 50 mM HEPES, pH 7.6, 1 mM TCEP, 30 μM Suc-LLVY-AMC (SEQ ID NO: 8) substrate, and inhibitor (0.5 to 50 μM). Calpain reactions also contained CaCl2 (1 mM and 100 mM for porcine and rat respectively). Both substrate and inhibitors were dissolved in acetonitrile/DMSO (1:1) with the exception of E-64, dissolved in water. Organic solvent remained <2% in all reactions, and most often <1%. Reactions were carried out in microtiter 96-well plates, with 150 μL per well, 30° C., and product formation was monitored over time by fluorescence (Ex/Em 346/444 nm, with 420 nm cutoff filter). Kinetic values of kobs were determined via non-linear regression using one-phase association analysis and linear plots of 1/kobs vs. 1/[I] provided kinetic constants ki and KI.

[5] = biological target: papain (Carica papaya (Papaya), UniProt P00784); assay: biochemical; type: biochemical; conditions: for ki Papain: inhibition rate; for rel Papain: ki/Ki calculated relative to E-64
Source text: as §1, §2

[6] = tested on: APP/PS1 mice; assay: Behavioral rescue assays (contextual fear memory, 2-day RAWM reference memory); type: in vivo; conditions: 3 month old APP/PS1 mice
Source text: APP/PS1-vehicle: n=15; APP/PS1-67: n=6; APP/PS1-30a: n=10; WT-vehicle: n=15; WT-67=5; WT-30a: n=8, APP/PS1-33: n=11; WT-33: n=8, APP/PS1-50: n=10; WT-50: n=8. P<0.05 in all transgenic groups treated with compound compared to their respective vehicle-treated transgenics.
APP/PS1-vehicle: n=17; APP/PS1-67: n=9; APP/PS1-30a: n=10; WT-vehicle: n=18; WT-67=9; WT-30a: n=9, APP/PS1-33: n=10; WT-33: n=9, APP/PS1-50: n=11; WT-50: n=9.
The ability of compounds to rescue the defects in associative and reference memory in 3 month old APP/PS1 animals was assessed. Capability of ameliorating the defects in contextual fear memory was tested via i.p. administration (FIG. 12). In the 2-day RAWM test, daily injections of the 67, 30a, 33 and 50 from the 2nd month of age were beneficial against the loss of contextual fear memory and reference memory.
Impact of chronic treatment on against memory loss in older APP/PS1 mice (7 months of age) with a more severe plaque load was also investigated. Compounds 67, 33 and 50 were beneficial against memory impairment following chronic administration (FIG. 13).
(§3) The ability of a prodrug to rescue the defects in associative and reference memory in 3 month old APP/PS1 animals was assessed. […] Thus, the esterification seems to improve PK but it spoils PD parameters. Compound 89 ameliorates both LTP and memory in 3 month old APP/PS1 mice (FIG. 15). Daily treatment with 89 from the age of 2 months until 3 months ameliorated the defect in LTP (A) contextual fear memory (B) and reference memory (C) in APP/PS1 mice. n=10 for all groups. P<0.05 in transgenics treated with compound compared to their respective vehicle-treated transgenics.

[7] = tested on: APP/PS1 mice; assay: LTP in APP/PS1 mice after daily treatment; type: in vivo; conditions: daily treatment from 2 until 3 months
Protocol: P<0.05 in transgenics treated with compound compared to their respective vehicle-treated transgenics.
as §3

[8] = tested on: Aβ40 and Aβ42; assay: Effect on Aβ levels in APP/PS1 mice; type: in vivo; conditions: compound-treated vs vehicle-treated APP/PS1 transgenics
Source text: Increase of brain and plasma levels of Aβ and appearance of amyloid plaques is an important feature of AD.

[9] = tested on: primary neurons; assay: LD50 in primary neurons; type: cell-based; conditions: YES = LD50 ≧ 50 μM in primary neurons
[10] = biological target: T1, full-length human Cal1 (Homo sapiens (Human), UniProt P07384); assay: Calpain inhibition FRET assay; type: biochemical; conditions: Table 2; approximate IC50; read-out: Cal I IC50
[11] = tested on: Cal I; assay: Relative selectivity for Cal I (E64 = 1.0), Table 2; type: biochemical; conditions: relative to E64 = 1.0
[12] = tested on: Aβ-induced LTP impairment; assay: LTP rescue test; conditions: LTP rescue, benchmark
Protocol: Residual levels of potentiation were averaged during the last 5 min of LTP.

[13] = biological target: T1, full-length human Cal1; assay: Calpain inhibition FRET assay; type: biochemical; conditions: Table 3, 20 min incubation, FRET substrate
[14] = mean ± S.D. of triplicate experiments

Chain of papain (P00784 134-345): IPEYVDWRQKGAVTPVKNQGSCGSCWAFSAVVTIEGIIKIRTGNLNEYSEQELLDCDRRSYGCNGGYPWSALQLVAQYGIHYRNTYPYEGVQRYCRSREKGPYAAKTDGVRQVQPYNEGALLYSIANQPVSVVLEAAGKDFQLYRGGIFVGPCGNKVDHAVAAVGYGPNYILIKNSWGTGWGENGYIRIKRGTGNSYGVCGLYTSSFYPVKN
Chain of Full length porcine calpain (P35750 whole entry): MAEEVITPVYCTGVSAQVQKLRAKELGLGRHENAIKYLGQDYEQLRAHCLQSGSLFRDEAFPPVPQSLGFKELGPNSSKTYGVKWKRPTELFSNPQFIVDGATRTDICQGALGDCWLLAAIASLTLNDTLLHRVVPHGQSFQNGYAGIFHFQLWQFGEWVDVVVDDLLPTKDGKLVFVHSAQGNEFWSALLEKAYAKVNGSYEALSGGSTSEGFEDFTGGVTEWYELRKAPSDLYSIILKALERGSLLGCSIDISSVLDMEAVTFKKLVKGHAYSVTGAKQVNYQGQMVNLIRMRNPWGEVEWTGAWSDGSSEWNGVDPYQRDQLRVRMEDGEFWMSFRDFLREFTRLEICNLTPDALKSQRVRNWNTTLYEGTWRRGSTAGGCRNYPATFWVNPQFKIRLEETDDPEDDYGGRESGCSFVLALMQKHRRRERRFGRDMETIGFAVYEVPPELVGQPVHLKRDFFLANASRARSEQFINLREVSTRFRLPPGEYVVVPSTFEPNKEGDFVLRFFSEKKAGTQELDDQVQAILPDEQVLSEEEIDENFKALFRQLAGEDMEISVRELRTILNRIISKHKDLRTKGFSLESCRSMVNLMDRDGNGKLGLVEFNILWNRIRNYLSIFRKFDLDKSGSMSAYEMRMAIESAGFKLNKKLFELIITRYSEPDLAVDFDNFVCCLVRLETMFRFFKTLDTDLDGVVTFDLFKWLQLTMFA
Chain of Full length porcine calpain (P04574 whole entry partner): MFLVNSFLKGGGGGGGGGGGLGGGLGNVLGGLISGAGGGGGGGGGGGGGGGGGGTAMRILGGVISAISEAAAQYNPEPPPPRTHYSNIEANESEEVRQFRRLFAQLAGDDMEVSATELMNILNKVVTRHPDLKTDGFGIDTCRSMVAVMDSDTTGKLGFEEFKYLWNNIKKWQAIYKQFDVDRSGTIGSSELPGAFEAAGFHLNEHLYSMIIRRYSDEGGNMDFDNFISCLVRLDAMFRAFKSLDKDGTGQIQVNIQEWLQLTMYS
Chain of Cal1cat (P97571 other isoform, or with tags, fused parts or gaps): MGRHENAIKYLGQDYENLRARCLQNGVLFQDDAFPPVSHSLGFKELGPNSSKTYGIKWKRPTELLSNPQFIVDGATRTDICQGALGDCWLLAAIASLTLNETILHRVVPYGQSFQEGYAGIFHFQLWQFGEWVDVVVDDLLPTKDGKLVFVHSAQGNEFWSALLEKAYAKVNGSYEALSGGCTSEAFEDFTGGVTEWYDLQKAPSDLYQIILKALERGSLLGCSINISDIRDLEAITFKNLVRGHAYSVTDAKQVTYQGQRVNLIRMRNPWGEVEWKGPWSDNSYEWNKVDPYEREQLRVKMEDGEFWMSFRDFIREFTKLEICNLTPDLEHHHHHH
T1 sequence (P07384 whole entry): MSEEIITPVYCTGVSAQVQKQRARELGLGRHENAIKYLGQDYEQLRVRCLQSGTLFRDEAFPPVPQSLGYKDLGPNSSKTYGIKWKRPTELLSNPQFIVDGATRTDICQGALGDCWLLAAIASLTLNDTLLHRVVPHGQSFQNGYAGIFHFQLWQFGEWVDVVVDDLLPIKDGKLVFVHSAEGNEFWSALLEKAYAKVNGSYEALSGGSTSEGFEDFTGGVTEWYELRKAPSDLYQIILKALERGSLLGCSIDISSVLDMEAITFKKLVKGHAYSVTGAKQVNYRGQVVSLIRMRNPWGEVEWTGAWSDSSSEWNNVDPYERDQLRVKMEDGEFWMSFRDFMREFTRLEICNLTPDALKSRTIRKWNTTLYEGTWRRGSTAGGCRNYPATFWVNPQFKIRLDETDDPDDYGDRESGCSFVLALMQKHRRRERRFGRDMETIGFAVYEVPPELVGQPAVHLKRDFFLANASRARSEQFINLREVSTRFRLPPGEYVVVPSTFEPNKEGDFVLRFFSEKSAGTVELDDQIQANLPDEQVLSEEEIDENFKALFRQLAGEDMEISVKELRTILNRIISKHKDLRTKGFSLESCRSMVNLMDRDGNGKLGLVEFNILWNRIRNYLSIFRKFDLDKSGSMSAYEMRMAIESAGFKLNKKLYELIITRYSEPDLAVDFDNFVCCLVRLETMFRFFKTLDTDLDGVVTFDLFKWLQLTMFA
T1 sequence (P04632 whole entry partner): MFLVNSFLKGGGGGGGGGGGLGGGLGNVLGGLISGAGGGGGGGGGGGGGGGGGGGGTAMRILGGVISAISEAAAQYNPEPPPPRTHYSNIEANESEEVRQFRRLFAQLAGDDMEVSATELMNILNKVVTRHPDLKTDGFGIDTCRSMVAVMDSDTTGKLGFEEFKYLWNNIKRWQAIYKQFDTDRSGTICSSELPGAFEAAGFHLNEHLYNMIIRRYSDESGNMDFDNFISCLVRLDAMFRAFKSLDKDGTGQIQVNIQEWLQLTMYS

| SMILES | Aβ levels and plaque load [1] | blocking of active site modification by probe 27 (western blot signal) [2] | modification of the active site cysteine of Cal1cat [3] | Ki [4] [nM] | ki Calpain1 [4] [s⁻¹] | rel Calpain1 [4] | ki Papain [5] [s⁻¹] | rel Papain [5] | other results |
| --- | --- | --- | --- | --- | --- | --- | --- | --- | --- |
| CC(C)C[C@H](NS(=O)(=O)c1ccccc1)C(=O)N[C@@H](C(C)C)[C@@H](O)c1c(-c2ccccc2)c1=O [BDA-410] | do not have any effect |  |  |  |  |  |  |  |  |
| CC(C)C[C@H](NC(=O)[C@H]1O[C@@H]1C(=O)O)C(=O)Nc1nc(-c2ccc(F)cc2)cs1 [Compound 24a, (2S,3S)-3-((S)-1-(4-(4-fluorophenyl)thiazol-2-ylamino)-4-methyl-1-oxopentan-2-ylcarbamoyl)oxirane-2-carboxylic acid] |  | substantially reduced signals from both enzymes | concentration dependent modification | 6000 | 0.16 | 0.91 | 17.1 | 1.9 | active site modification on co-incubation of E-64 and 24a (EIC peak areas) ([3]; Cal1cat with E-64 and 24a, both 1 μM): greater modification; Ki ([5]; apparent equilibrium constant, read-out: K1 Papain): 1600 nM |
| CCOC(=O)[C@@H]1O[C@H]1C(=O)N[C@@H](Cc1cscn1)C(=O)Nc1nc(-c2ccc(F)cc2)cs1 [Compound 89] |  |  |  |  |  |  |  |  | reference memory ([6]; 2-day RAWM, daily from 2 months): ameliorated; contextual fear memory ([6]; daily i.p. from 2 months): ameliorated; defect in LTP [7]: ameliorated; Aβ40 and Aβ42 levels in hippocampi [8]: no difference was detected |
| CC(C)C[C@H](NC(=O)C1O[C@@H]1C(=O)O)C(=O)NCCCCNC(=N)N (stereo partly drawn) [Compound E64, L-trans-epoxysuccinyl-leucylamido(4-guanidino)butane, reference compound] | do not have any effect | substantial loss of signal | concentration dependent modification | 4000 | 0.12 | 1 | 28.6 | 1 | LD50 ≧ 50 μM primary neurons [9]: YES; selectivity for Cal1cat (ratio of Cal1cat versus CathB band intensities) ([2]; ratio for probe 27 alone set as 1.0, inhibitor 5 μM): 1.5; IC50 [10]: 100 nM; Relative Selectivity ([4]; Cal1 over papain, ki/Ki relative to E-64 set at 1.0): 1; 10^−4 × ki/Ki Calpain1 [4, 14]: 3.02 ± 0.15; Relative selectivity for Cal I E64 = 1.0 [11]: 1.0; ED50 [12]: 650 nM; Ki [5]: 5100 nM; 10^−5 × ki/Ki Papain [5, 14]: 56.3 ± 5.2; IC50 [13]: 100 nM |
